In brackets after ≈: the same amount, converted by molar mass.
Legend:
[1] = Toxicity against Artemia salina after 24 hrs; assay type: organism-based; settings: in vivo
[2] = test system: Agrobacterium tumefaciens; assay: Inhibition of Agrobacterium tumefaciens-induced tumor formation in potato at 0.5 mg/ml by antitumor potato disk assay; assay type: functional
[3] = Inhibition of sea urchin egg development after 48 hrs; settings: echinoidea, sea urchin eggs

## C#CC(O)/C=C/CCCCCCCCCCCCCCCCCCCCCCCCCCCCCCCCC/C=C\C#CC(=O)OC (stereo unspecified)
[1]
  LC50 at 24 h: 2 ng/mL (≈ 0.00306 µM)

## C#C/C=C\CCCCCCCCCCCCCC/C=C\CC/C=C/C#CC(O)C#CCCCC/C=C\CCCCCC/C=C/C(O)C#C (stereo unspecified)
[1]
  LC50 at 24 h: 7.5 ng/mL (≈ 0.0115 µM)
[2]
  inhibition at 500 µg/mL: 43%
[3]
  LC50 at 48 h: 50 µg/mL (≈ 76.6 µM)

## C#C/C=C\CCCCCCCCCCCCCC/C=C\CC/C=C/C#CC(O)C#CCCCC/C=C\CCCCCC/C=C/C(=O)C#C (stereo unspecified)
[1]
  LC50 at 24 h: 40 ng/mL (≈ 0.0614 µM)

## C#CC(O)/C=C/CC/C=C\CCCC/C=C\CCC#CC(O)C#C/C=C/CC/C=C\CCCCCCCCCCCCC/C=C/C(O)C#C (stereo unspecified)
[1]
  LC50 at 24 h: 9 ng/mL (≈ 0.0135 µM)
[2]
  inhibition at 500 µg/mL: 15%
[3]
  LC50 at 48 h: 1 µg/mL (≈ 1.5 µM)

## C#C[C@@H](O)/C=C/CCCCCC/C=C\CCCCC#C[C@H](O)C#C/C=C/CC/C=C\CCCCCCCCCCCCC/C=C/[C@H](O)C#C [PETROFORMYNE 1]
[1]
  LC50 at 24 h: 14 ng/mL (≈ 0.0209 µM)
[2]
  inhibition at 500 µg/mL: 35%
[3]
  LC50 at 48 h: 10 µg/mL (≈ 14.9 µM)

## C#CCCCCCCCCCCCCCCCC/C=C\CC/C=C/C#C[C@@H](O)C#CCCCC/C=C\CCCCCC/C=C/[C@H](O)C#C [PETROFORMYNE 3]
[1]
  LC50 at 24 h: 3 ng/mL (≈ 0.00458 µM)
[2]
  inhibition at 500 µg/mL: 49%
[3]
  LC50 at 48 h: 10 µg/mL (≈ 15.3 µM)

## C#CCCCCCCCCCCCCCCCC/C=C\CC/C=C/C#CC(O)C#CCCCC/C=C\CCCCCC/C=C/C(=O)C#C (stereo unspecified) [PETROFORMYNE 6]
[1]
  LC50 at 24 h: 120 ng/mL (≈ 0.184 µM)

## C#CC(O)/C=C/CCCCCCCCCCCCCCCCCCCCCCCCCCCCCCCCCCC/C=C\C#CC(=O)OC (stereo unspecified) [PETROFORMYNE B]
[1]
  LC50 at 24 h: 2.5 ng/mL (≈ 0.00367 µM)
